Where a SMILES comes first, the peptide text is derived from it. The star is where a group is joined. Cbz = O=C(OCc1ccccc1)*; CH2F = FC*
Experiments:
[1] = system: CD8+ T cells obtained from OT-1 PL Rag−/− TCR transgenic mice; test: Proliferation, clonal expansion and apoptosis of antigen-stimulated CD8+ T cells; assay type: cell-based
Protocol: (§1) Naïve or resting CD8+ T cells obtained from OT-1 PL Rag−/− TCR transgenic mice were stimulated in vitro with its cognate antigen in the presence of B7.1 co-stimulatory molecule, and cytokine IL-12 for 48h. The antigen constitutes sulfate latex microspheres (Life Technologies Cat. No. S37227) bearing DimerX Ig-recombinant dimeric mouse H-2Kb: Ig fusion protein (BD Biosciences, Cat. No. 550750) with recombinant mouse B7-1/CD80 Fc chimeric protein (R&D Systems, Cat. No. 740-B). Short synthetic peptide SIINFEKL (SEQ ID NO:1) at 10 nM concentration (sequence derived from a chicken ovalbumin protein), presented by H-2Kb DimerX serves as the cognate antigen for TCR of CD8+ T cells from OT-1 PL Rag−/−TCR transgenic mice. CD8+ T cells isolated from lymph nodes and/or spleen were stimulated with antigen in the following culture medium: Glutamine-free RPMI (Corning CellGro, Cat. No. 15-040-CV) supplemented with FBS 10%, HEPES 10 mM, NEAA 1 mM, sodium pyruvate 1 mM, glutamine 2 mM, 2-mercaptoethanol 50 μM, and Pen/Strep. T cells were cultured in flat-bottom 96-well plates at 2×105/0.2 ml/well with microspheres at the ratio of 5:1. Genipin was added at 50 μM concentration (based on dose titration that produces minimal cell death) and preincubated with cells for 45 mins before subjecting the CD8+ T cells to antigen stimulation. The CD8+ T cells are cultured and harvested at 4 hours to 48 hours for evaluation by molecular, physiologic and phenotypic characteristics by standard methodologies like flow cytometry based phenotyping, lysis for protein or mRNA derivation using western blot, PCR and metabolic flux analysis. Signal one was provided by MHC Class I (H-2Kb) dimers bearing 1-10 nM of OT-1 cognate peptide (SIINFEKL; SEQ ID NO:1) (Ag). Signal two was provided by 1 μg/ml of recombinant murine B7.1 (co-stimulation) immobilized on inert latex microspheres (serves as artificial antigen presenting cells) in the presence of the third signal; 2 ng/ml of rmIL-12 (cytokine). For antigen stimulation, the naïve T cells and latex microspheres were reacted at a ratio of 5:1 (T cells: microspheres) for various time points and were evaluated for their molecular, physiologic and phenotypic characteristics by standard methodologies including flow cytometry, western blot, PCR and metabolic flux analysis (FIG. 1). To determine whether UCP2 plays a role in antigen induced ROS generation and determine its impact on CD8+ T cell clonal expansion, antigen induced cytoplasmic (CROS) and/or mitochondrial ROS (mROS) production was evaluated by CM-H2DCFDA and MitoSox staining and flow cytometry analysis, respectively. Genetic (si-UCP2) or pharmacological (Genipin) means were used to block UCP2 function.

[2] = system: antigen stimulated OT-1 cells; test: Antigen-induced cytoplasmic and mitochondrial ROS by CM-H2DCFDA and MitoSox staining and flow cytometry; assay type: cell-based, mice
Protocol: Naïve or resting CD8+ T cells obtained from OT-1 PL Rag−/− TCR transgenic mice were stimulated in vitro with its cognate antigen in the presence of B7.1 co-stimulatory molecule, and cytokine IL-12 for 48h. The antigen constitutes sulfate latex microspheres (Life Technologies Cat. No. S37227) bearing DimerX Ig-recombinant dimeric mouse H-2Kb: Ig fusion protein (BD Biosciences, Cat. No. 550750) with recombinant mouse B7-1/CD80 Fc chimeric protein (R&D Systems, Cat. No. 740-B). Short synthetic peptide SIINFEKL (SEQ ID NO:1) at 10 nM concentration (sequence derived from a chicken ovalbumin protein), presented by H-2Kb DimerX serves as the cognate antigen for TCR of CD8+ T cells from OT-1 PL Rag−/−TCR transgenic mice. CD8+ T cells isolated from lymph nodes and/or spleen were stimulated with antigen in the following culture medium: Glutamine-free RPMI (Corning CellGro, Cat. No. 15-040-CV) supplemented with FBS 10%, HEPES 10 mM, NEAA 1 mM, sodium pyruvate 1 mM, glutamine 2 mM, 2-mercaptoethanol 50 μM, and Pen/Strep. […] To determine whether UCP2 plays a role in antigen induced ROS generation and determine its impact on CD8+ T cell clonal expansion, antigen induced cytoplasmic (CROS) and/or mitochondrial ROS (mROS) production was evaluated by CM-H2DCFDA and MitoSox staining and flow cytometry analysis, respectively. […]

CD8+ T cells [3] = test: Metabolic flux analysis (ECAR/OCR, spare respiratory capacity) of antigen-stimulated CD8+ T cells; assay type: cell-based, mice; settings: antigen stimulation in the presence of Genipin, FIG. 4A
Protocol: Naïve or resting CD8+ T cells obtained from OT-1 PL Rag−/− TCR transgenic mice were stimulated in vitro with its cognate antigen in the presence of B7.1 co-stimulatory molecule, and cytokine IL-12 for 48h. The antigen constitutes sulfate latex microspheres (Life Technologies Cat. No. S37227) bearing DimerX Ig-recombinant dimeric mouse H-2Kb: Ig fusion protein (BD Biosciences, Cat. No. 550750) with recombinant mouse B7-1/CD80 Fc chimeric protein (R&D Systems, Cat. No. 740-B). Short synthetic peptide SIINFEKL (SEQ ID NO:1) at 10 nM concentration (sequence derived from a chicken ovalbumin protein), presented by H-2Kb DimerX serves as the cognate antigen for TCR of CD8+ T cells from OT-1 PL Rag−/−TCR transgenic mice. CD8+ T cells isolated from lymph nodes and/or spleen were stimulated with antigen in the following culture medium: Glutamine-free RPMI (Corning CellGro, Cat. No. 15-040-CV) supplemented with FBS 10%, HEPES 10 mM, NEAA 1 mM, sodium pyruvate 1 mM, glutamine 2 mM, 2-mercaptoethanol 50 μM, and Pen/Strep. […] For antigen stimulation, the naïve T cells and latex microspheres were reacted at a ratio of 5:1 (T cells: microspheres) for various time points and were evaluated for their molecular, physiologic and phenotypic characteristics by standard methodologies including flow cytometry, western blot, PCR and metabolic flux analysis (FIG. 1).

CD8+ T cells [4] = test: Lipid content / de novo lipid synthesis in antigen-stimulated CD8+ T cells; assay type: cell-based, mice
Protocol: Naïve or resting CD8+ T cells obtained from OT-1 PL Rag−/− TCR transgenic mice were stimulated in vitro with its cognate antigen in the presence of B7.1 co-stimulatory molecule, and cytokine IL-12 for 48h. The antigen constitutes sulfate latex microspheres (Life Technologies Cat. No. S37227) bearing DimerX Ig-recombinant dimeric mouse H-2Kb: Ig fusion protein (BD Biosciences, Cat. No. 550750) with recombinant mouse B7-1/CD80 Fc chimeric protein (R&D Systems, Cat. No. 740-B). Short synthetic peptide SIINFEKL (SEQ ID NO:1) at 10 nM concentration (sequence derived from a chicken ovalbumin protein), presented by H-2Kb DimerX serves as the cognate antigen for TCR of CD8+ T cells from OT-1 PL Rag−/−TCR transgenic mice. CD8+ T cells isolated from lymph nodes and/or spleen were stimulated with antigen in the following culture medium: Glutamine-free RPMI (Corning CellGro, Cat. No. 15-040-CV) supplemented with FBS 10%, HEPES 10 mM, NEAA 1 mM, sodium pyruvate 1 mM, glutamine 2 mM, 2-mercaptoethanol 50 μM, and Pen/Strep. T cells were cultured in flat-bottom 96-well plates at 2×105/0.2 ml/well with microspheres at the ratio of 5:1. Genipin was added at 50 μM concentration (based on dose titration that produces minimal cell death) and preincubated with cells for 45 mins before subjecting the CD8+ T cells to antigen stimulation. […]

CD8+ T cells [5] = test: Phenotyping of effector differentiation markers and transcription factors in CD8+ T cells; assay type: cell-based, mice; settings: CD8+ T cells treated with Genipin
Protocol: as §1, with “1).” for “1). To determine whether UCP2 plays a role in antigen induced ROS generation and determine its impact on CD8+ T cell clonal expansion, antigen induced cytoplasmic (CROS) and/or mitochondrial ROS (mROS) production was evaluated by CM-H2DCFDA and MitoSox staining and flow cytometry analysis, respectively. Genetic (si-UCP2) or pharmacological (Genipin) means were used to block UCP2 function.”

[6] = UCP2 inhibited OT-1 cells, FIG. 3C

COC(=O)C1=CO[C@@H](O)[C@@H]2C(CO)=CC[C@H]12 [Genipin]
proliferation of activated CD8+ T cells ([1]; Genipin treated, 50 μM, FIG. 3A): limited proliferation | apoptosis (contraction in clonal expansion) ([1]; Genipin treated, FIG. 3B): increased apoptosis | mitochondrial reactive oxygen species (ROS) ([2]; Genipin treated): increase | ECAR/OCR ratio (glycolysis over mitochondrial respiration) (CD8+ T cells [3]): higher | spare respiratory capacity (SRC) (CD8+ T cells [3]): very low | lipid content (de novo lipid synthesis) (CD8+ T cells [4]; antigen stimulation in the presence of Genipin, FIG. 4B): increased lipid content | PD-1 and Lag3 expression (CD8+ T cells [5]): increases | Blimp1/BC16 ratio (CD8+ T cells [5]; FIG. 5): increasing | Tbet/Eomes ratio (CD8+ T cells [5]; FIG. 5): increasing | expression of IFNγ, Gzmb, and effector cell markers KLRG1 and CXCR3 (CD8+ T cells [5]; FIG. 5): increased expression

CC1(C)CC(NC(=O)C[P+](c2ccccc2)(c2ccccc2)c2ccccc2)CC(C)(C)N1[O] [MitoTempo]
cell proliferation and cell contraction after quenching of mitochondrial ROS [1, 6]: restored | mitochondrial ROS after quenching with mitochondrially targeted antioxidant [2, 6]: reverses ROS

CC(NC(=O)C(NC(=O)OCc1ccccc1)C(C)C)C(=O)NC(CC(=O)O)C(=O)CF (stereo not drawn) [ZVAD] (Cbz-Val-Ala-Asp-CH2F; configuration not given here)
Genipin-induced contraction in clonal expansion on addition of pan caspase inhibitor ([1]; added to Genipin treated cells, FIG. 3B): can be reversed

SML0068
lipid synthesis on blocking cytoplasmic export of citrate from the mitochondria (CD8+ T cells [4]; UCP2 inhibited cells, FIG. 4D): reduced lipid synthesis

From patent US11141432B2, “Materials and methods for increasing immune responses” (Mayo Foundation for Medical Education and Research, priority 2016, dated 2021)
